Where no end group is shown, it is not given here.
Tests used:
FOXO4 foci = assay: Immunofluorescence / quantitative imaging of FOXO4 foci; format: cell-based, human
Method: For all immunofluorescence experiments, cells were plated in 96-well plates (Cellvis P96-1.5P). At the end of each experiment, cells were washed once with PBS and then fixed with 4% paraformaldehyde for 10 minutes at room temperature. For experiments with caspase-3/7 staining, the Caspase-3/7 reagent (Thermo Scientific Cat# C10723) was added to live cells for 30 minutes prior to fixation. Fixed cells were washed with PBS and then permeabilized with ice-cold methanol at 4°C for 10 minutes. Cells were washed with PBS and then blocked for 30 minutes with 1% Bovine Serum Albumin (BSA) in PBS. […]
Quantitative imaging was performed as described with the following exceptions. […] Quantification of fluorescence intensities was performed using CellProfiler. Briefly, the DAPI staining was used to create a nuclear mask, and fluorescence intensities of the stained markers (FOXO4, CDKN2A, CDKN1A, and TP53) and FOXO4 foci were measured within the nuclear mask. DAPI fluorescence intensity was also quantified and used for DNA content measurements. […]

[1] = test system: senescent A375 human melanoma cells; assay: Orthotopic xenograft of senescent luciferase A375 cells in mouse ears; format: in vivo; conditions: NSG mouse ears, local injection 50 µL of 5 mg/mL once daily for two days, imaged 24 hours after second treatment; ANOVA p<0.01
Excerpt: (§1) Mice were aged between 3-8 months and 20-30 g in weight and were housed in specific pathogen free cages. Animals were randomly distributed among treatment groups by assigning mice within the same cage to different treatment regimens. To minimise confounders, mouse treatment order was randomised within each cage. Male and female mice were distributed between all treatment groups since the chemicals used were directly injected and are not metabolized. Researchers were not blinded to the group allocation, but all attempts were made to analyse the data without knowing treatment conditions. NOD.Cg-Prkdcscid Il2rgtm1Wjl/SzJ (NSG) were purchased from The Jackson Laboratory (IMSR Cat# JAX:005557, RRID:IMSR_JAX:005557). NOD.Cg-KitW-41J Tyr + Prkdcscid Il2rgtm1Wjl/ThomJ (NBSGW) were purchased from The Jackson Laboratory (IMSR Cat# JAX:026622, RRID:IMSR_JAX:026622). Immunocompromised mice used for these experiments were all in the NSG background; however, some mice were F1 generation of NSG x NBSGW, thus the brown coat colour as NBSGW mice have tyrosinase. Xenografts containing senescent cells were established by injecting A375-Luc/iRFP human melanoma cells which contained a luciferase expressing gene into immunocompromised NSG ears. Senescence was induced in the cells via doxorubicin treatment (40 nM) then resuspended in DMEM prior to injection. Each ear was then injected with 50 µL containing approximately 1,000,000 cells. The ears were treated once daily for two days with 50 µL of either 5 mg/mL peptide, or saline. To control for confounders, each mouse contained one ear treated with saline (control). For imaging, mice were injected with 3 mg luciferin intravenously and imaged before and after treatment. Transgenic mice (BrafCA, PtenloxP, Tyr::CreERT2) were purchased from The Jackson Laboratory (IMSR Cat# JAX:013590, RRID:IMSR_JAX:013590). These mice were maintained on a C57Bl6 background and all experimental mice contained Tyr::CreER with either Braf^CA/+, Pten^fx/+; Braf^CA/CA, Pten^fx/+, or Braf^CA/+, Pten^fx/fx. […] Hypopigmented melanomas sporadically formed over the next 3-5 months, typically on the back of the mouse. These melanomas were then directly injected with 100 µL of either 20 mg/mL ES2+10%DMSO, saline+10%DMSO, saline+10%Dabrafenib, or 20 mg/mL ES2+10%Dabrafenib. The researchers were not blinded to the experiment, but each mouse contained an internal control and all imaging was done with the same exposure times based upon control tissue. For survival analyses, either 750,000 or 25,000 A375-Luc/iRFP cells were injected intradermally into NSG mice. Different combinations of drugs were locally injected to the region once daily for two days with 50 µL of either 5 mg/mL ES2, 10%Dabrafenib, or 5mg/mL ES2+10%Dabrafenib. Dabrafenib was made at 100 mg/mL in DMSO. Mice were then monitored daily and allowed to age until a humane endpoint was reached according to our IACUC protocol, which in this case was tumours of 2 cm in size. Aged C57Bl6 male mice were purchased from the Jackson Laboratory (IMSR Car# JAX:000664, RRID:IMSR_JAX:000664) at 72 weeks of age and were started on the experiment at 82 weeks. Mice were treated with 3 mg of ES2 via tail vein injection weekly for three weeks and weighed weekly. Blood was drawn prior to beginning experiments and at the endpoint. To generate plasma, blood was centrifuged at 1,500g for 10 minutes, then 2,500g for 10 minutes, then frozen for later analyses. […]

[2] = test system: dividing A375 human melanoma cells; assay: Survival study, orthotopic A375 xenograft; format: in vivo, mouse; conditions: local injection once daily for two days
Excerpt: as §1, with “Different combinations of drugs were locally injected to the region once daily for two days with 50 µL of either 5 mg/mL ES2, 10%Dabrafenib, or 5mg/mL ES2+10%Dabrafenib. Dabrafenib was made at 100 mg/mL in DMSO.” left out, “size.” for “size. Aged C57Bl6 male mice were purchased from the Jackson Laboratory (IMSR Car# JAX:000664, RRID:IMSR_JAX:000664) at 72 weeks of age and were started on the experiment at 82 weeks. Mice were treated with 3 mg of ES2 via tail vein injection weekly for three weeks and weighed weekly. Blood was drawn prior to beginning experiments and at the endpoint. To generate plasma, blood was centrifuged at 1,500g for 10 minutes, then 2,500g for 10 minutes, then frozen for later analyses.”

## PRKGGRRRRAWGRRRRRRRRRRRRRRAPRKRLTLA [ES2]
FOXO4 foci; BODIPY-labelled ES2, A375 cells, 2 h
  concentration at which accumulation, co-localization with FOXO4 and disruption of focus formation observed: ≥ 8 µM
FOXO4 foci; senescent A375 cells, ES2 8 µM for 4 h
  FOXO4 foci after ES2 addition: caused a loss of FOXO4 foci
[1]
  luciferase signal compared to E1 and saline: statistically significantly reduced luciferase signal
[2]; 25,000 A375 cells
  effect on survival time, in words: no effect on survival time
[2]; 750,000 A375 cells
  effect on survival time, in words: did not alter survival times
